{"source": "ChEMBL document CHEMBL5465560", "about": "“Selectivity Literature for EUbOPEN Chemogenomic Library” (2024)", "key": {"[1]": {"molecular_target": "Mitogen-activated protein kinase 7 (Homo sapiens) (UniProt Q13164)", "sequence (Q13164 2-816 limits assumed)": "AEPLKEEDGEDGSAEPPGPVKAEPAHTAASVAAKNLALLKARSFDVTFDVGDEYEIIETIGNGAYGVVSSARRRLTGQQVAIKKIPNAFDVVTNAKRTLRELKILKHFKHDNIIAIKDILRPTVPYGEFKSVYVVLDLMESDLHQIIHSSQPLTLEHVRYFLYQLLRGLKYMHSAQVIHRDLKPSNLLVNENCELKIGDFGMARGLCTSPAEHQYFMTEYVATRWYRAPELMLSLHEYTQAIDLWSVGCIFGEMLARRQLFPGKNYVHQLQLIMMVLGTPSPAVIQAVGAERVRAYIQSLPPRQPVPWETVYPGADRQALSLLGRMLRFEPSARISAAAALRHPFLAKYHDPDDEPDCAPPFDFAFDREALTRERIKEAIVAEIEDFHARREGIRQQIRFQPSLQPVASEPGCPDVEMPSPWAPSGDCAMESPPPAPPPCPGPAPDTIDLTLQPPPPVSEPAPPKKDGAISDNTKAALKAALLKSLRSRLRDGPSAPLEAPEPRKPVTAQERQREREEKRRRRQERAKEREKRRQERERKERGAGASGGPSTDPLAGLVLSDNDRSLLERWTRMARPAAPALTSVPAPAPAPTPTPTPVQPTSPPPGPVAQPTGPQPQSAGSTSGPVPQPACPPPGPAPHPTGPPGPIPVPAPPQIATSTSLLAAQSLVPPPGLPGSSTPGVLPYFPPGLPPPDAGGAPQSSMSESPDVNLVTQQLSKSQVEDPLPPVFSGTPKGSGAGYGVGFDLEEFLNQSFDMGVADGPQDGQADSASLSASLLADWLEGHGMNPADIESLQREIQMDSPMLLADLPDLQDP", "experiment": "Selectivity interaction (ActivX KiNativ screen (kinase selectivity in THP-1 cell lysates)) EUB0000639a MAPK7", "type": "subcellular", "conditions": "lysate"}, "[2]": {"molecular_target": "Serine/threonine-protein kinase PAK 4 (Homo sapiens, UniProt O96013)", "sequence (O96013 whole entry)": "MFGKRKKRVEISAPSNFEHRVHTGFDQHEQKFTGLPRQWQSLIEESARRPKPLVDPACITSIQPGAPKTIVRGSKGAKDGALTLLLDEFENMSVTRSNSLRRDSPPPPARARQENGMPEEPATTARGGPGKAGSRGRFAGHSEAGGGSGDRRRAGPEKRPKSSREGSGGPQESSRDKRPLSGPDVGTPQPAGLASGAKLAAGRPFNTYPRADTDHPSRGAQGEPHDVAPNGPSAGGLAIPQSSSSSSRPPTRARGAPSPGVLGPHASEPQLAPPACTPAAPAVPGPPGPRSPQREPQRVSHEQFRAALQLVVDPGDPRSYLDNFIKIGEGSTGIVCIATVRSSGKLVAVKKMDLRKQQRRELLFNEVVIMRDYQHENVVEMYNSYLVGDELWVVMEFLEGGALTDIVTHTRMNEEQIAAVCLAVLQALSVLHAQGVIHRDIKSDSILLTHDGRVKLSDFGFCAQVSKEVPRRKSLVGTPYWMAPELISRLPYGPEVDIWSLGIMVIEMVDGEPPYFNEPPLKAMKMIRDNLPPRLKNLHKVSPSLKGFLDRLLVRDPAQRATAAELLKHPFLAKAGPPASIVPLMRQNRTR"}, "[3]": {"molecular_target": "Serine/threonine-protein kinase PAK 1 (Homo sapiens) (UniProt Q13153)", "experiment": "Selectivity interaction (Kinase panel (Z-LYTE Assay)) EUB0001632a PAK1", "conditions": "at 10 µM"}, "[4]": {"test_system": "T1, Receptor-type tyrosine-protein kinase FLT3 (Homo sapiens), P36888 [N841I]", "T1 sequence (whole entry)": "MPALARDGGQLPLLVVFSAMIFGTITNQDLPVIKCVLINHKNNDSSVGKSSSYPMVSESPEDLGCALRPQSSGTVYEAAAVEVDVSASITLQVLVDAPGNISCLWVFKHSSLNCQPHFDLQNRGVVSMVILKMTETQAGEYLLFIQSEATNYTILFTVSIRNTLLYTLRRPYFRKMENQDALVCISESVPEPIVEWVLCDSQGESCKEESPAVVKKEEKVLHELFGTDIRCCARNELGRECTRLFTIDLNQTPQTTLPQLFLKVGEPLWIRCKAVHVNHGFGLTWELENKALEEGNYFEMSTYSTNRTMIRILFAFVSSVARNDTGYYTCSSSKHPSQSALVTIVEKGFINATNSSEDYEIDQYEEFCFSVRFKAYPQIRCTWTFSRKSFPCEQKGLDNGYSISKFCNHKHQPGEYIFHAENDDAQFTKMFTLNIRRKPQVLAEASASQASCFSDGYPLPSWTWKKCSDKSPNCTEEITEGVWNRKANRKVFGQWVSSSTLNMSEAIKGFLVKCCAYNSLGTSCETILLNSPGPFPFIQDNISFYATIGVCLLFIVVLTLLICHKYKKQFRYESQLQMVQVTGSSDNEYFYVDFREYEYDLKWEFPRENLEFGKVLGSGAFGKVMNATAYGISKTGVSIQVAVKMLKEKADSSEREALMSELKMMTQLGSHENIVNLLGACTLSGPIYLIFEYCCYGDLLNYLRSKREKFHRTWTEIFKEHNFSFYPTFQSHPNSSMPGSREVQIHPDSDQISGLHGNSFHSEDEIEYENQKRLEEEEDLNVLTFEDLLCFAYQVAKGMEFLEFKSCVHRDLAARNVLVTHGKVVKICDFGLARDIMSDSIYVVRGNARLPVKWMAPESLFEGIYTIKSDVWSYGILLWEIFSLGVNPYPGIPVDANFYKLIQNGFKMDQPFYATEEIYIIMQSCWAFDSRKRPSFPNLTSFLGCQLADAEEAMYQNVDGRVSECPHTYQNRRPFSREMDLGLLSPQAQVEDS", "conditions": "at 10 µM"}, "[5]": {"molecular_target": "T2, SNF-related serine/threonine-protein kinase (Homo sapiens) (UniProt Q9NRH2)", "T2 sequence (whole entry)": "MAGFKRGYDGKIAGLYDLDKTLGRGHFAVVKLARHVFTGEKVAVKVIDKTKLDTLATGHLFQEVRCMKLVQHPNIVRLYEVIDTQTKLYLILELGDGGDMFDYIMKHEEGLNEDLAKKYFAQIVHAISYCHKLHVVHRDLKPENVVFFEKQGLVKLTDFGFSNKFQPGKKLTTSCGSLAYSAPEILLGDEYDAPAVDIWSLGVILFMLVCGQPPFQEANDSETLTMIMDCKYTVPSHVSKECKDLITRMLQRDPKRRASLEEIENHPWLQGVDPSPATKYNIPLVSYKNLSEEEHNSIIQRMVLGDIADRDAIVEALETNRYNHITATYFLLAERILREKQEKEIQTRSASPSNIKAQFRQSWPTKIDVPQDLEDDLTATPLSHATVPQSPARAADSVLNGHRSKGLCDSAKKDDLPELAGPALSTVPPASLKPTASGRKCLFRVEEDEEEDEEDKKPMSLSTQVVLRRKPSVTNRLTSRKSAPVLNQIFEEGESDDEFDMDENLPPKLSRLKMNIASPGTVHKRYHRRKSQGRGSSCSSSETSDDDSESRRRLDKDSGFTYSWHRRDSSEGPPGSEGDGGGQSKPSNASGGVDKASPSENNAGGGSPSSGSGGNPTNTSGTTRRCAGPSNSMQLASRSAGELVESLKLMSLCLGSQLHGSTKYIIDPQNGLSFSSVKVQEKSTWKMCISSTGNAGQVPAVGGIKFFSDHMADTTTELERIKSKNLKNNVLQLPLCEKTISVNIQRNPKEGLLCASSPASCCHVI", "experiment": "Selectivity interaction (KinomeScan (DiscoverX)) EUB0000595a SNRK", "conditions": "at 10 µM"}, "[6]": {"molecular_target": "Ephrin type-A receptor 5 (Homo sapiens) (UniProt P54756)", "sequence (P54756 whole entry)": "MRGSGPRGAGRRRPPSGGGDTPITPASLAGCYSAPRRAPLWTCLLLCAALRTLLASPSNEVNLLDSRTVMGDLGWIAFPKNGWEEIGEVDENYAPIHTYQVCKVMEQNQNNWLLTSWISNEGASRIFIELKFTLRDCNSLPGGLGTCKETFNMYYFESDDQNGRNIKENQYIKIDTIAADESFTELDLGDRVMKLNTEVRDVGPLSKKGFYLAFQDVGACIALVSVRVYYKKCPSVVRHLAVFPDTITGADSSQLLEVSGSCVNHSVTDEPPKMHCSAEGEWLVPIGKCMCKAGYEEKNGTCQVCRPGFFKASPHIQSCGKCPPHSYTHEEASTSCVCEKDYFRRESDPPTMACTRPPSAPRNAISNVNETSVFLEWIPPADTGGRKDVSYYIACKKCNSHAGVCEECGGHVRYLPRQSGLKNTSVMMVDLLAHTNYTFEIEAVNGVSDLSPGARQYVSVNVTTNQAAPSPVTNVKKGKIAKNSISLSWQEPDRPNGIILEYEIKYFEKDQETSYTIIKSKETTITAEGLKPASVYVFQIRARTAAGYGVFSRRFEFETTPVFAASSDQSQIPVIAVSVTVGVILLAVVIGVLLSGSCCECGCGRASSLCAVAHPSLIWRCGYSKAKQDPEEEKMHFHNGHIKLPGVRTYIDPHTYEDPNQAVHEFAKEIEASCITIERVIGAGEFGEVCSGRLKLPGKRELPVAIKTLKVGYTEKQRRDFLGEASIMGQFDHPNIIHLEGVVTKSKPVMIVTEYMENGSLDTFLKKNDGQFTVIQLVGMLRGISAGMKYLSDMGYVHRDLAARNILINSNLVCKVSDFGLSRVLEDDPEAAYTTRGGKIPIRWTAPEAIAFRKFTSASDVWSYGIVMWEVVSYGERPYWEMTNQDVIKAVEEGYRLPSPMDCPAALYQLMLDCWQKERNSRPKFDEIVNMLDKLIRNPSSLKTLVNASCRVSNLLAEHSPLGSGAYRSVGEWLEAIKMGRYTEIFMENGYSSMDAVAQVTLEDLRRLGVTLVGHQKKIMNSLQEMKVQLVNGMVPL", "experiment": "Selectivity interaction (KinomeScan (DiscoverX)) EUB0000595a EPHA5", "conditions": "at 10 µM"}, "[7]": {"molecular_target": "Vascular endothelial growth factor receptor 1 (Homo sapiens) (UniProt P17948)", "experiment": "Selectivity interaction (KinomeScan (DiscoverX)) EUB0000229b FLT1", "conditions": "at 10 µM"}, "[8]": {"molecular_target": "Phosphatidylinositol 4-kinase type 2-alpha (Homo sapiens) (UniProt Q9BTU6)", "sequence (Q9BTU6 whole entry)": "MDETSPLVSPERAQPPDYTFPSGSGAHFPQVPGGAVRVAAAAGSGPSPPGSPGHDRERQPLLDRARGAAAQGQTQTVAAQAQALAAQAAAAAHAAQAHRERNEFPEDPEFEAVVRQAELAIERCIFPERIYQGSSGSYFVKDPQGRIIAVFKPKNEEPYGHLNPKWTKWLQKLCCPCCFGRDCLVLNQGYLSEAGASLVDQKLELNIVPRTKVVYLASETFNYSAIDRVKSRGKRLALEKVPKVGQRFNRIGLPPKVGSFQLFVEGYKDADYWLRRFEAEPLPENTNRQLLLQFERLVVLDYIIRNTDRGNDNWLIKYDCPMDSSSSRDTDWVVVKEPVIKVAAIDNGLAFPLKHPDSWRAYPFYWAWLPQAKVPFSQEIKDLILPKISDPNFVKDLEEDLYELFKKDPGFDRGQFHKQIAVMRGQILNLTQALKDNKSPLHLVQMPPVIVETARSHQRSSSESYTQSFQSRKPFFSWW", "experiment": "Selectivity interaction (ProQinase) EUB0000171b PI4K2A"}, "[9]": {"molecular_target": "Tyrosine-protein kinase SYK (Homo sapiens, UniProt P43405)", "experiment": "Selectivity interaction (KinomeScan (DiscoverX)) EUB0000092b SYK", "conditions": "at 10 µM"}, "[10]": {"molecular_target": "Mitogen-activated protein kinase kinase kinase 9 (Homo sapiens) (UniProt P80192)", "experiment": "Selectivity interaction (KinomeScan (DiscoverX)) EUB0000092b MAP3K9", "conditions": "at 10 µM"}, "[11]": {"molecular_target": "Calcium/calmodulin-dependent protein kinase type 1G (Homo sapiens) (UniProt Q96NX5)", "experiment": "Selectivity interaction (KinomeScan (DiscoverX)) EUB0001619a CAMK1G", "conditions": "at 1 µM"}, "[12]": {"molecular_target": "Serine/threonine-protein kinase PAK 6 (Homo sapiens) (UniProt Q9NQU5)", "sequence (Q9NQU5 whole entry, looked up)": "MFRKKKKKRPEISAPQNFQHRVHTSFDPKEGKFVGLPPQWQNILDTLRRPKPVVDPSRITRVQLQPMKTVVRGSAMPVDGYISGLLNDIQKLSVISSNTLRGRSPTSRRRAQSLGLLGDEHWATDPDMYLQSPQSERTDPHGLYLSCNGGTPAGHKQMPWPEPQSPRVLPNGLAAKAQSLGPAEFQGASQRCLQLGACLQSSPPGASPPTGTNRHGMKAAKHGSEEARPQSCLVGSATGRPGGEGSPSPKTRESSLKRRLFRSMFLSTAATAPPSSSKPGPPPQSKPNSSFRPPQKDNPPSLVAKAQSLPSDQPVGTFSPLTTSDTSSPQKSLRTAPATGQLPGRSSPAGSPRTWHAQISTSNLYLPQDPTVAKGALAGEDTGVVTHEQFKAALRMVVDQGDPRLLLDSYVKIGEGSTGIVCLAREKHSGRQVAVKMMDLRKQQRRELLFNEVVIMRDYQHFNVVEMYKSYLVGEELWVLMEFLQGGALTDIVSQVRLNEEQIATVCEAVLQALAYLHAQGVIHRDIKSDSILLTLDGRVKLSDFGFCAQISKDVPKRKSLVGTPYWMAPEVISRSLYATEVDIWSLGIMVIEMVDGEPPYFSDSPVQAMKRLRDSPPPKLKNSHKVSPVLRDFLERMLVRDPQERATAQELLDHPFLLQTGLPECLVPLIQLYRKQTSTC", "experiment": "Selectivity interaction (KinomeScan (DiscoverX)) EUB0001619a PAK6", "conditions": "at 1 µM"}, "[13]": {"molecular_target": "Macrophage-stimulating protein receptor (Homo sapiens, UniProt Q04912)", "sequence (Q04912 25-304 limits assumed)": "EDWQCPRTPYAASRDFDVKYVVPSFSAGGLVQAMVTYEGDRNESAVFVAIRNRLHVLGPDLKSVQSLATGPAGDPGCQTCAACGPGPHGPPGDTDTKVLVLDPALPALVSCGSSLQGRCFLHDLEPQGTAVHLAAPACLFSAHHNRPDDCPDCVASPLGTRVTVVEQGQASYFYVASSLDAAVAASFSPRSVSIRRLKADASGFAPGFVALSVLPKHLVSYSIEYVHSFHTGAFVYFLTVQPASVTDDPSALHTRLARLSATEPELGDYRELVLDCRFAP", "sequence (Q04912 310-1400 limits assumed)": "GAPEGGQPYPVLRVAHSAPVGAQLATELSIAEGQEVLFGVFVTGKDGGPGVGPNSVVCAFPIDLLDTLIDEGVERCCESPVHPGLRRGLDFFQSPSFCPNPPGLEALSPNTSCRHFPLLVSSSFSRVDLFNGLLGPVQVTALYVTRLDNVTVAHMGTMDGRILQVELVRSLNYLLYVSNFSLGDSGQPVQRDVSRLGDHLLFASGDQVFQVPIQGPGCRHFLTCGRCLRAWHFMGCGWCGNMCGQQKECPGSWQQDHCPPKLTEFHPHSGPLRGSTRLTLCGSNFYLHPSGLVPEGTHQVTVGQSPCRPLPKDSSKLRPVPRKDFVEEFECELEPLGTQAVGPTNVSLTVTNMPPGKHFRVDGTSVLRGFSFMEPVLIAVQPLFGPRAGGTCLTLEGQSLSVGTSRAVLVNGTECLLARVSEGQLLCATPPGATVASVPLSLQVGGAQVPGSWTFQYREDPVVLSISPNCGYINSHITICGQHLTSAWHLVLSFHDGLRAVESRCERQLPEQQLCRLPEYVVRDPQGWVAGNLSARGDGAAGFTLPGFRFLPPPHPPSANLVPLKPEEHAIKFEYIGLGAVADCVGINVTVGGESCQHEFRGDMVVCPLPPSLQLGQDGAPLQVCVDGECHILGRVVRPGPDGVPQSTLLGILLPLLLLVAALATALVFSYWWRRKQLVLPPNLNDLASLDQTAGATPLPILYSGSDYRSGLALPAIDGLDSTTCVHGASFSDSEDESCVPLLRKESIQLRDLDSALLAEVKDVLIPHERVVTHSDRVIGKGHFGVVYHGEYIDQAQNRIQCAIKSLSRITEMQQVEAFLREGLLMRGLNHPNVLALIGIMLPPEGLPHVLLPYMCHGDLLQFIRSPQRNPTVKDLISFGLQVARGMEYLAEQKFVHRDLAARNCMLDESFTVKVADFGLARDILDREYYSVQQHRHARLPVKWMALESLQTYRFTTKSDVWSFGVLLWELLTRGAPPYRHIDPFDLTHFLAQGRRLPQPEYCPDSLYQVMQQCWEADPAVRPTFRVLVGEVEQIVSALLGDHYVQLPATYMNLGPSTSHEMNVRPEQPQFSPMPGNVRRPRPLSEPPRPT", "experiment": "Selectivity interaction (KinomeScan (DiscoverX)) EUB0000618a MST1R", "conditions": "at 10 µM"}, "[14]": {"molecular_target": "Calcium/calmodulin-dependent protein kinase kinase 2 (Homo sapiens) (UniProt Q96RR4)", "experiment": "Selectivity interaction (KinomeScan (DiscoverX)) EUB0000618a CAMKK2", "conditions": "at 10 µM"}, "[15]": {"molecular_target": "Serine/threonine-protein kinase PAK 3 (Homo sapiens) (UniProt O75914)", "experiment": "Selectivity interaction (KinomeScan (DiscoverX)) EUB0000618a PAK3", "conditions": "at 10 µM"}}, "data": [{"compound": "CC[C@@H]1[C@H](F)C(=O)N[C@@H]1COc1nccc2cc(C(N)=O)c(OC)cc12", "note": "[ZIMLOVISERTIB]", "values": [{"measurement": "% of inhibition", "setting": "[1]; at 0.01 µM", "result": -4.2, "unit": "%"}, {"measurement": "% of inhibition", "setting": "[1]; at 0.04 µM", "result": 1.9, "unit": "%"}, {"measurement": "% of inhibition", "setting": "[1]; at 0.2 µM", "result": -8.8, "unit": "%"}, {"measurement": "% of inhibition", "setting": "[1]; at 1 µM", "result": -11.9, "unit": "%"}, {"measurement": "% of inhibition", "setting": "[1]; at 5 µM", "result": 15.7, "unit": "%"}]}, {"compound": "CCc1cccc(CC)c1NC(=O)c1nn(C)c2c1CCc1cnc(Nc3ccc(C(=O)NC4CCN(C)CC4)cc3OC(F)(F)F)nc1-2", "values": [{"measurement": "IC50", "setting": "[2]", "result": "> 10", "unit": "µM"}]}, {"compound": "Cn1cc(-n2cnc3c(NCc4nc5cc(Cl)c(Cl)cc5[nH]4)nc(N4CCOCC4)nc32)cn1", "values": [{"measurement": "% of control", "setting": "[3]", "result": -0.498, "unit": "%"}]}, {"compound": "CCN(CC)CCCCNc1ncc2cc(-c3cc(OC)cc(OC)c3)c(NC(=O)NC(C)(C)C)nc2n1", "values": [{"measurement": "% of control", "setting": "[4]", "result": 100, "unit": "%"}]}, {"compound": "COCC(=O)NC/C=C/c1ccc2ncnc(Nc3ccc(Oc4ccc(C)nc4)c(C)c3)c2c1", "note": "[CP-724714]", "values": [{"measurement": "% of control", "setting": "[5]", "result": 71, "unit": "%"}, {"measurement": "% of control", "setting": "[6]", "result": 100, "unit": "%"}]}, {"compound": "COc1cc(N(C)c2ccnc3ccc(C(F)(F)F)cc23)cc(OC)c1OC", "values": [{"measurement": "% binding", "setting": "[7]", "result": 100, "unit": "%"}]}, {"compound": "C=CC(=O)Nc1cccc(C(=O)Nc2ccc(Nc3cc(-c4[nH]c(SC)nc4C)ccn3)cc2)c1", "values": [{"measurement": "% of control", "setting": "[8]; at 1 µM", "result": 117, "unit": "%"}, {"measurement": "% of control", "setting": "[8]; at 5 µM", "result": 133, "unit": "%"}]}, {"compound": "CCC(=O)N1CCN(c2ccc(-n3c(=O)ccc4cnc5ccc(-c6cnc7ccccc7c6)cc5c43)cc2C(F)(F)F)CC1", "values": [{"measurement": "% of control", "setting": "[9]", "result": 78, "unit": "%"}, {"measurement": "% of control", "setting": "[10]", "result": 84, "unit": "%"}]}, {"compound": "N#Cc1cccc(-c2c[nH]c3ncnc(N4CCOCC4)c23)c1", "values": [{"measurement": "% of control", "setting": "[11]", "result": 100, "unit": "%"}, {"measurement": "% of control", "setting": "[12]", "result": 66, "unit": "%"}]}, {"compound": "O[C@H]1CC[C@H](Nc2ncc3nc(Nc4c(F)cc(F)cc4F)n([C@H]4CCOC4)c3n2)CC1", "values": [{"measurement": "% of control", "setting": "[13]", "result": 100, "unit": "%"}, {"measurement": "% of control", "setting": "[14]", "result": 94, "unit": "%"}, {"measurement": "% of control", "setting": "[15]", "result": 100, "unit": "%"}]}]}
